Assay results reported in patent US20250340591A1, “COMPOSITION FOR PREVENTING OR TREATING INFLAMMATORY BOWEL DISEASE CONTAINING NOVEL COMPOUND” (ANYGEN CO., LTD., priority 2021, published 2025).
Square brackets hold non-standard residues; d marks the D form. Peptide text beside a SMILES is read from it. * marks the point of attachment. Tyr(3,5-(NO2)2) = N[C@@H](Cc1cc([N+](=O)[O-])c(O)c([N+](=O)[O-])c1)C(=O)O; His(Trt) = N[C@@H](Cc1cn(C(c2ccccc2)(c2ccccc2)c2ccccc2)cn1)C(=O)O; dHis(Trt) = N[C@H](Cc1cn(C(c2ccccc2)(c2ccccc2)c2ccccc2)cn1)C(=O)O; His(τ-CHPh2) = N[C@@H](Cc1cn(C(c2ccccc2)c2ccccc2)cn1)C(=O)O; His(τ-Bzl) = N[C@@H](Cc1cn(Cc2ccccc2)cn1)C(=O)O; dPhe(4-Cl) = N[C@H](Cc1ccc(Cl)cc1)C(=O)O; dPhe(4-Me) = Cc1ccc(C[C@@H](N)C(=O)O)cc1; d2Nal = N[C@H](Cc1ccc2ccccc2c1)C(=O)O; Palmitoyl = CCCCCCCCCCCCCCCC(=O)*; Lauroyl = CCCCCCCCCCCC(=O)*; Octanoyl = CCCCCCCC(=O)*; Orn = NCCC[C@H](N)C(=O)O

target: T1, GPR39 (Homo sapiens, UniProt O43194); test: luciferase assay system (SRE luciferase reporter gene, CV-1 cells expressing GPR39); format: cell-based; parameters: expressed in transfected cells; host or cells: CV-1 fibroblast cell line (Korea Cell Line Bank), adenoviral transduction at 50 MOI; conditions: not given
T1 sequence (O43194 1-453): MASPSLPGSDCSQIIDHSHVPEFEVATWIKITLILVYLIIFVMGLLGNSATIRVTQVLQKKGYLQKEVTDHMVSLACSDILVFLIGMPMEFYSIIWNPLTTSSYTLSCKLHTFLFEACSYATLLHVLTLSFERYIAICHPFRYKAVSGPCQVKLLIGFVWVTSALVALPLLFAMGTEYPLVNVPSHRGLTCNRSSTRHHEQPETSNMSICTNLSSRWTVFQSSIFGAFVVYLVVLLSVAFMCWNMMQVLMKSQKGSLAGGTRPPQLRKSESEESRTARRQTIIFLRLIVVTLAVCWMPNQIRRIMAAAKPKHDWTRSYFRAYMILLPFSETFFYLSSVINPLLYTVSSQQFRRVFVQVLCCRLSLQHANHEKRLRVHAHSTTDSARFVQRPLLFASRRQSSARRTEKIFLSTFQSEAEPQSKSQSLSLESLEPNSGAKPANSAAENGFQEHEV

In order of rising “ECmax (−fold induction over basal)” value:
1. CCCCCCCCCCCC(=O)NCCCC[C@H](NC(=O)[C@@H](N)Cc1cn(C(c2ccccc2)(c2ccccc2)c2ccccc2)cn1)C(=O)N[C@@H](Cc1ccccc1)C(=O)N[C@@H](Cc1ccc(O)cc1)C(=O)O [HKFY-25, N6-dodecanoyl-N2-(Nt-trityl-L-histidyl)-L-lysyl-L-phenylalanyl-L-tyrosine] (H-[His(Trt)]K(Lauroyl)FY-OH)  7.72 ± 0.57 fold induction over basal
2. CCCCCCCC(=O)NCCCC[C@H](N)C(=O)N[C@@H](Cc1ccccc1)C(=O)N[C@@H](Cc1ccc(O)cc1)C(=O)O [HKFY-54, N6-octanoyl-L-lysyl-L-phenylalanyl-L-tyrosine] (H-Lys(Octanoyl)-Phe-Tyr-OH)  7.8 ± 2.5 fold induction over basal
3. CCCCCCCC(=O)NCCCC[C@H](NC(=O)[C@H](CO)NC(=O)CNC(=O)[C@@H](N)Cc1cn(C(c2ccccc2)(c2ccccc2)c2ccccc2)cn1)C(=O)N[C@@H](Cc1ccccc1)C(=O)N[C@@H](Cc1ccc(O)cc1)C(=O)O [HKFY-53, N6-octanoyl-N2-(Nt-trityl-L-histidylglycyl-L-seryl)-L-lysyl-L-phenylalanyl-L-tyrosine] (H-[His(Trt)]GSK(Octanoyl)FY-OH)  8 ± 2.12 fold induction over basal
4. CCCCCCCC(=O)NCCCC[C@H](NC(=O)[C@@H](N)Cc1cn(-c2ccccc2)cn1)C(=O)N[C@H](Cc1ccc(C)cc1)C(=O)N[C@@H](Cc1ccc(O)cc1)C(=O)O [HKFY-58, ((R)-2-((S)-2-((S)-2-amino-3-(1-phenyl-1H-imidazol-4-yl)propanamido)-6-octanamidohexanamido)-3-(p-tolyl)propanoyl)-L-tyrosine]  9.12 ± 2.1 fold induction over basal
5. CCCCCCCC(=O)NCCCC[C@H](NC(=O)[C@@H](N)Cc1cn(Cc2ccccc2)cn1)C(=O)N[C@@H](Cc1ccccc1)C(=O)N[C@@H](Cc1ccc(O)cc1)C(=O)O [HKFY-3, N2-(Nt-benzyl-L-histidyl)-N6-octanoyl-L-lysyl-L-phenylalanyl-L-tyrosine] (H-[His(τ-Bzl)]K(Octanoyl)FY-OH)  9.2 ± 2.58 fold induction over basal
6. CCCCCCCC(=O)NCCCC[C@H](NC(=O)[C@@H](N)Cc1cn(-c2ccc(C(C)(C)C)cc2)cn1)C(=O)N[C@H](Cc1ccc(C)cc1)C(=O)N[C@@H](Cc1ccc(O)cc1)C(=O)O [HKFY-61, ((R)-2-((S)-2-((S)-2-amino-3-(1-(4-(tert-butyl)phenyl)-1H-imidazol-4-yl)propanamido)-6-octanamidohexanamido)-3-(p-tolyl)propanoyl)-L-tyrosine]  9.88 ± 1.8 fold induction over basal
7. CCCCCCCC(=O)NCCCC[C@H](NC(=O)[C@@H](N)Cc1cn(Cc2ccc(-c3ccccc3-c3nnn[nH]3)cc2)cn1)C(=O)N[C@H](Cc1ccc(C)cc1)C(=O)N[C@@H](Cc1ccc(O)cc1)C(=O)O [HKFY-77, ((R)-2-((S)-2-((S)-3-(1-((2′-(1H-tetrazol-5-yl)-[1,1′-biphenyl]-4-yl)methyl)-1H-imidazol-4-yl)-2-aminopropanamido)-6-octanamidohexanamido)-3-(p-tolyl)propanoyl)-L-tyrosine]  11.6 ± 2.14 fold induction over basal
8. CCCCCCCC(=O)NCCCC[C@H](NC(=O)[C@@H](N)Cc1cn(C(c2ccccc2)(c2ccccc2)c2ccccc2)cn1)C(=O)N[C@@H](CC(C)C)C(=O)N[C@@H](Cc1ccc(O)cc1)C(=O)O [HKFY-51, N6-octanoyl-N2-(Nt-trityl-L-histidyl)-L-lysyl-L-leucyl-L-tyrosine] (H-[His(Trt)]K(Octanoyl)LY-OH)  14.4 ± 1.9 fold induction over basal
9. CCCCCCCC(=O)NCCCC[C@H](NC(=O)[C@H](Cc1cn(C(c2ccccc2)(c2ccccc2)c2ccccc2)cn1)NC(=O)[C@H](CO)NC(=O)CN)C(=O)N[C@@H](Cc1ccccc1)C(=O)N[C@@H](Cc1ccc(O)cc1)C(=O)O [HKFY-37, N2-(Na-glycyl-L-seryl-Nt-trityl-L-histidyl)-N6-octanoyl-L-lysyl-L-phenylalanyl-L-tyrosine] (H-GS[His(Trt)]K(Octanoyl)FY-OH)  16 ± 1.7 fold induction over basal
10. CCCCCCCC(=O)NCCC[C@H](NC(=O)[C@@H](N)Cc1cn(C(c2ccccc2)c2ccccc2)cn1)C(=O)N[C@H](Cc1ccc(C)cc1)C(=O)N[C@@H](Cc1ccc(O)cc1)C(=O)O [HKFY-71, ((R)-2-((S)-2-((S)-2-amino-3-(1-benzhydryl-1H-imidazol-4-yl)propanamido)-5-octanamidopentanamido)-3-(p-tolyl)propanoyl)-L-tyrosine] (H-[His(τ-CHPh2)][Orn](Octanoyl)[dPhe(4-Me)]Y-OH)  16.4 ± 2.51 fold induction over basal
11. CCCCCCCC(=O)NCCCC[C@H](N)C(=O)N[C@@H](Cc1cn(C(c2ccccc2)(c2ccccc2)c2ccccc2)cn1)C(=O)N[C@@H](Cc1ccccc1)C(=O)N[C@@H](Cc1ccc(O)cc1)C(=O)O [HKFY-55, Na-(N6-octanoyl-L-lysyl)-Nt-trityl-L-histidyl-L-phenylalanyl-L-tyrosine] (H-K(Octanoyl)[His(Trt)]FY-OH)  16.8 ± 2.5 fold induction over basal
12. CCCCCCCC(=O)NCCCC[C@H](NC(=O)[C@H](N)Cc1cn(C(c2ccccc2)(c2ccccc2)c2ccccc2)cn1)C(=O)N[C@@H](Cc1ccccc1)C(=O)N[C@@H](Cc1ccc(O)cc1)C(=O)O [HKFY-4, N6-octanoyl-N2-(Nt-trityl-D-histidyl)-L-lysyl-L-phenylalanyl-L-tyrosine] (H-[dHis(Trt)]K(Octanoyl)FY-OH)  16.8 ± 1.87 fold induction over basal
13. CCCCCCCC(=O)NCCCC[C@H](NC(=O)[C@@H](N)Cc1cn(C(c2ccccc2)(c2ccccc2)c2ccccc2)cn1)C(=O)N[C@H](Cc1ccc2ccccc2c1)C(=O)N[C@@H](Cc1ccc(O)cc1)C(=O)O [HKFY-74, ((R)-2-((S)-2-((S)-2-amino-3-(1-trityl-1H-imidazol-4-yl)propanamido)-6-octanamidohexanamido)-3-(naphthalen-2-yl)propanoyl)-L-tyrosine] (H-[His(Trt)]K(Octanoyl)[d2Nal]Y-OH)  18.8 ± 3.2 fold induction over basal
14. CCCCCCCC(=O)NCCCC[C@H](NC(=O)[C@@H](N)Cc1cn(C(c2ccccc2)(c2ccccc2)c2ccccc2)cn1)C(=O)N[C@@H](Cc1ccccc1)C(=O)N[C@@H](Cc1c[nH]c2ccccc12)C(=O)O [HKFY-46, N6-octanoyl-N2-(Nt-trityl-L-histidyl)-L-lysyl-L-phenylalanyl-L-tryptophan] (H-[His(Trt)]K(Octanoyl)FW-OH)  20 ± 0.28 fold induction over basal
15. CCCCCCCCCCCCCCCC(=O)NCCCC[C@H](NC(=O)[C@@H](N)Cc1cn(C(c2ccccc2)(c2ccccc2)c2ccccc2)cn1)C(=O)N[C@@H](Cc1ccccc1)C(=O)N[C@@H](Cc1ccc(O)cc1)C(=O)O [HKFY-27, N6-palmitoyl-N2-(Nt-trityl-L-histidyl)-L-lysyl-L-phenylalanyl-L-tyrosine] (H-[His(Trt)]K(Palmitoyl)FY-OH)  20.4 ± 0.57 fold induction over basal
16. CCCCCCCC(=O)NCCCC[C@@H](NC(=O)[C@@H](N)Cc1cn(C(c2ccccc2)(c2ccccc2)c2ccccc2)cn1)C(=O)N[C@H](Cc1ccc(Cl)cc1)C(=O)N[C@@H](Cc1ccc(O)cc1)C(=O)O [HKFY-16, ((R)-2-((R)-2-((S)-2-amino-3-(1-trityl-1H-imidazol-4-yl)propanamido)-6-octanamidohexanamido)-3-(4-chlorophenyl)propanoyl)-L-tyrosine] (H-[His(Trt)][dK](Octanoyl)[dPhe(4-Cl)]Y-OH)  27.9 ± 3.4 fold induction over basal
17. CCCCCCCC(=O)NCCCC[C@H](NC(=O)[C@H](N)Cc1cn(C(c2ccccc2)c2ccccc2)cn1)C(=O)N[C@H](Cc1ccc(C)cc1)C(=O)N[C@@H](Cc1ccc(O)cc1)C(=O)O [HKFY-62, ((R)-2-((S)-2-((R)-2-amino-3-(1-benzhydryl-1H-imidazol-4-yl)propanamido)-6-octanamidohexanamido)-3-(p-tolyl)propanoyl)-L-tyrosine]  28.1 ± 2.1 fold induction over basal
18. CCCCCCCC(=O)NCCCC[C@H](NC(=O)[C@@H](N)Cc1c[nH]c(-c2ccc(C(C)(C)C)cc2)n1)C(=O)N[C@H](Cc1ccc(C)cc1)C(=O)N[C@@H](Cc1ccc(O)cc1)C(=O)O [HKFY-60, ((R)-2-((S)-2-((S)-2-amino-3-(2-(4-(tert-butyl)phenyl)-1H-imidazol-4-yl)propanamido)-6-octanamidohexanamido)-3-(p-tolyl)propanoyl)-L-tyrosine]  28.2 ± 2.5 fold induction over basal

same assay, conditions: CV-1 cells, GPR39 and SRE luciferase adenovirus, 6 hours treatment

With `CCCCCCCC(=O)NCCCC[C@H](NC(=O)[C@@H](N)Cc1cn(C(c2ccccc2)c2ccccc2)cn1)C(=O)N[C@H](Cc1ccc(C)cc1)C(=O)N[C@@H](Cc1cc([N+](=O)[O-])c(O)c([N+](=O)[O-])c1)C(=O)O` [HKFY-69, (S)-2-((R)-2-((S)-2-((S)-2-amino-3-(1-benzhydryl-1H-imidazol-4-yl)propanamido)-6-octanamidohexanamido)-3-(p-tolyl)propanamido)-3-(4-hydroxy-3,5-dinitrophenyl)propanoic acid] (H-[His(τ-CHPh2)]K(Octanoyl)[dPhe(4-Me)][Tyr(3,5-(NO2)2)]-OH) the “ECmax (−fold induction over basal)” value was 12.2 ± 2.5 fold induction over basal.
